According to patent US20140343000A1 (priority 2011, published 2014):

Each compound was assayed on recombinant NL4-3 virus (Renilla luciferase in nef, Gag P373S; NLRluc) in MT-2 cells (assay: whole plant or invertebrate). Conditions: Renilla, NL43, luciferase activity in cells infected for 4-5 days with NLRluc recombinants, serial dilutions of inhibitor; class symbols (key in Table 1); read-out: EC50.
Assay type: cell-based, HIV
In short: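 MT-2 cells in RPMI 1640 with 10% heat-inactivated FBS were infected with the reporter virus, made by transfecting the proviral clone into 293T cells, and cultured 4-5 days with serial inhibitor dilutions. Antiviral activity was quantified from Renilla luciferase activity measured in lysed cells.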
Work on C=C(C)[C@@H]1CC[C@]2(NC(=O)C(=O)Nc3nncs3)CC[C@]3(C)[C@H](CC[C@@H]4[C@@]5(C)CC=C(c6ccc(C(=O)O)cc6)C(C)(C)[C@@H]5CC[C@]43C)[C@@H]12 [Example 78, 4-((1R,3aS,5aR,5bR,7aR,11aS,11bR,13aR,13bR)-3a-(2-(1,3,4-thiadiazol-2-ylamino)-2-oxoacetamido)-5a,5b,8,8,11a-pentamethyl-1-(prop-1-en-2-yl)-2,3,3a,4,5,5a,5b,6,7,7a,8,11,11a,11b,12,13,13a,13b-octadecahydro-1H-cyclopenta[a]chrysen-9-yl)benzoic acid] yielded an EC50 of under 100 nM.
In the case of C=C(C)[C@@H]1CC[C@]2(NC(=O)C(=O)Nc3nccs3)CC[C@]3(C)[C@H](CC[C@@H]4[C@@]5(C)CC=C(c6ccc(C(=O)O)cc6)C(C)(C)[C@@H]5CC[C@]43C)[C@@H]12 [Example 79, 4-((1R,3aS,5aR,5bR,7aR,11aS,11bR,13aR,13bR)-5a,5b,8,8,11a-pentamethyl-3a-(2-oxo-2-(thiazol-2-ylamino)acetamido)-1-(prop-1-en-2-yl)-2,3,3a,4,5,5a,5b,6,7,7a,8,11,11a,11b,12,13,13a,13b-octadecahydro-1H-cyclopenta[a]chrysen-9-yl)benzoic acid], the EC50 is reported as under 100 nM.
C=C(C)[C@@H]1CC[C@]2(NC(=O)CCN3CCS(=O)(=O)CC3)CC[C@]3(C)[C@H](CC[C@@H]4[C@@]5(C)CC=C(c6ccc(C(=O)O)cc6)C(C)(C)[C@@H]5CC[C@]43C)[C@@H]12 [Example 81, benzoic acid, 4-[(1R,3aS,5aR,5bR,7aR,11aS,11bR,13aR,13bR)-3a-[[3-(1,1-dioxido-4-thiomorpholinyl)-1-oxopropyl]amino]-2,3,3a,4,5,5a,5b,6,7,7a,8,11,11a,11b,12,13,13a,13b-octadecahydro-5a,5b,8,8,11a-pentamethyl-1-(1-methylethenyl)-1H-cyclopenta[a]chrysen-9-yl]] gave an EC50 of under 100 nM.
C=C(C)[C@@H]1CC[C@]2(NC(=O)CN3CCS(=O)(=O)CC3)CC[C@]3(C)[C@H](CC[C@@H]4[C@@]5(C)CC=C(c6ccc(C(=O)O)cc6)C(C)(C)[C@@H]5CC[C@]43C)[C@@H]12 [Example 82, benzoic acid, 4-[(1R,3aS,5aR,5bR,7aR,11aS,11bR,13aR,13bR)-3a-[[(1,1-dioxido-4-thiomorpholinyl)acetyl]amino]-2,3,3a,4,5,5a,5b,6,7,7a,8,11,11a,11b,12,13,13a,13b-octadecahydro-5a,5b,8,8,11a-pentamethyl-1-(1-methylethenyl)-1H-cyclopenta[a]chrysen-9-yl]] gave an EC50 of under 100 nM.
With C=C(C)[C@@H]1CC[C@]2(NC(=O)CN3C[C@@H](C)O[C@@H](C)C3)CC[C@]3(C)[C@H](CC[C@@H]4[C@@]5(C)CC=C(c6ccc(C(=O)O)cc6)C(C)(C)[C@@H]5CC[C@]43C)[C@@H]12 [Example 83, 4-((1R,3aS,5aR,5bR,7aR,11aS,11bR,13aR,13bR)-3a-(2-((2S,6R)-2,6-dimethylmorpholino)acetamido)-5a,5b,8,8,11a-pentamethyl-1-(prop-1-en-2-yl)-2,3,3a,4,5,5a,5b,6,7,7a,8,11,11a,11b,12,13,13a,13b-octadecahydro-1H-cyclopenta[a]chrysen-9-yl)benzoic acid] the EC50 was under 100 nM.
Work on C=C(C)[C@@H]1CC[C@]2(NC(=O)CN3CCN(CCO)CC3)CC[C@]3(C)[C@H](CC[C@@H]4[C@@]5(C)CC=C(c6ccc(C(=O)O)cc6)C(C)(C)[C@@H]5CC[C@]43C)[C@@H]12 [Example 84, 4-((1R,3aS,5aR,5bR,7aR,11aS,11bR,13aR,13bR)-3a-(2-(4-(2-hydroxyethyl)piperazin-1-yl)acetamido)-5a,5b,8,8,11a-pentamethyl-1-(prop-1-en-2-yl)-2,3,3a,4,5,5a,5b,6,7,7a,8,11,11a,11b,12,13,13a,13b-octadecahydro-1H-cyclopenta[a]chrysen-9-yl)benzoic acid] yielded an EC50 of under 100 nM.
C=C(C)[C@@H]1CC[C@]2(NC(=O)CN3CCN(CC)CC3)CC[C@]3(C)[C@H](CC[C@@H]4[C@@]5(C)CC=C(c6ccc(C(=O)O)cc6)C(C)(C)[C@@H]5CC[C@]43C)[C@@H]12 [Example 85, 4-((1R,3aS,5aR,5bR,7aR,11aS,11bR,13aR,13bR)-3a-(2-(4-ethylpiperazin-1-yl)acetamido)-5a,5b,8,8,11a-pentamethyl-1-(prop-1-en-2-yl)-2,3,3a,4,5,5a,5b,6,7,7a,8,11,11a,11b,12,13,13a,13b-octadecahydro-1H-cyclopenta[a]chrysen-9-yl)benzoic acid] showed an EC50 of under 100 nM.
C=C(C)[C@@H]1CC[C@]2(NC(=O)CN(C)CCOC)CC[C@]3(C)[C@H](CC[C@@H]4[C@@]5(C)CC=C(c6ccc(C(=O)O)cc6)C(C)(C)[C@@H]5CC[C@]43C)[C@@H]12 [Example 86, 4-((1R,3aS,5aR,5bR,7aR,11aS,11bR,13aR,13bR)-3a-(2-((2-methoxyethyl)(methyl)amino)acetamido)-5a,5b,8,8,11a-pentamethyl-1-(prop-1-en-2-yl)-2,3,3a,4,5,5a,5b,6,7,7a,8,11,11a,11b,12,13,13a,13b-octadecahydro-1H-cyclopenta[a]chrysen-9-yl)benzoic acid] showed an EC50 of under 100 nM.
C=C(C)[C@@H]1CC[C@]2(NC(=O)Cn3cc(-c4ccccc4)cn3)CC[C@]3(C)[C@H](CC[C@@H]4[C@@]5(C)CC=C(c6ccc(C(=O)O)cc6)C(C)(C)[C@@H]5CC[C@]43C)[C@@H]12 [Example 87, 4-((1R,3aS,5aR,5bR,7aR,11aS,11bR,13aR,13bR)-5a,5b,8,8,11a-pentamethyl-3a-(2-(4-phenyl-1H-pyrazol-1-yl)acetamido)-1-(prop-1-en-2-yl)-2,3,3a,4,5,5a,5b,6,7,7a,8,11,11a,11b,12,13,13a,13b-octadecahydro-1H-cyclopenta[a]chrysen-9-yl)benzoic acid] was tested, and the EC50 was under 100 nM.
C=C(C)[C@@H]1CC[C@]2(NC(=O)Cn3ccnn3)CC[C@]3(C)[C@H](CC[C@@H]4[C@@]5(C)CC=C(c6ccc(C(=O)O)cc6)C(C)(C)[C@@H]5CC[C@]43C)[C@@H]12 [Example 88, 4-((1R,3aS,5aR,5bR,7aR,11aS,11bR,13aR,13bR)-3a-(2-(1H-1,2,3-triazol-1-yl)acetamido)-5a,5b,8,8,11a-pentamethyl-1-(prop-1-en-2-yl)-2,3,3a,4,5,5a,5b,6,7,7a,8,11,11a,11b,12,13,13a,13b-octadecahydro-1H-cyclopenta[a]chrysen-9-yl)benzoic acid] gave an EC50 of under 100 nM.
In the case of C=C(C)[C@@H]1CC[C@]2(NC(=O)Cn3ccnc3)CC[C@]3(C)[C@H](CC[C@@H]4[C@@]5(C)CC=C(c6ccc(C(=O)O)cc6)C(C)(C)[C@@H]5CC[C@]43C)[C@@H]12 [Example 89, 4-((1R,3aS,5aR,5bR,7aR,11aS,11bR,13aR,13bR)-3a-(2-(1H-imidazol-1-yl)acetamido)-5a,5b,8,8,11a-pentamethyl-1-(prop-1-en-2-yl)-2,3,3a,4,5,5a,5b,6,7,7a,8,11,11a,11b,12,13,13a,13b-octadecahydro-1H-cyclopenta[a]chrysen-9-yl)benzoic acid], the EC50 is reported as under 100 nM.
With C=C(C)[C@@H]1CC[C@]2(NC(=O)C(C)N3CCS(=O)(=O)CC3)CC[C@]3(C)[C@H](CC[C@@H]4[C@@]5(C)CC=C(c6ccc(C(=O)O)cc6)C(C)(C)[C@@H]5CC[C@]43C)[C@@H]12 (stereo partly drawn) [Example 93, benzoic acid, 4-[(1R,3aS,5aR,5bR,7aR,11aS,11bR,13aR,13bR)-3a-[[2-(1,1-dioxido-4-thiomorpholinyl)-1-oxopropyl]amino]-2,3,3a,4,5,5a,5b,6,7,7a,8,11,11a,11b,12,13,13a,13b-octadecahydro-5a,5b,8,8,11a-pentamethyl-1-(1-methylethenyl)-1H-cyclopenta[a]chrysen-9-yl]] the EC50 was under 100 nM.
Compound C=C(C)[C@@H]1CC[C@]2(NC(=O)CN3CC(F)(F)C3)CC[C@]3(C)[C@H](CC[C@@H]4[C@@]5(C)CC=C(c6ccc(C(=O)O)cc6)C(C)(C)[C@@H]5CC[C@]43C)[C@@H]12 [Example 94, 4-((1R,3aS,5aR,5bR,7aR,11aS,11bR,13aR,13bR)-3a-(2-(3,3-difluoroazetidin-1-yl)acetamido)-5a,5b,8,8,11a-pentamethyl-1-(prop-1-en-2-yl)-2,3,3a,4,5,5a,5b,6,7,7a,8,11,11a,11b,12,13,13a,13b-octadecahydro-1H-cyclopenta[a]chrysen-9-yl)benzoic acid] has an EC50 of under 100 nM.

Same assay, conditions: Renilla, NL43, luciferase activity in cells infected for 4-5 days with NLRluc recombinants, serial dilutions of inhibitor; numeric values; read-out: EC50
With C=C(C)[C@@H]1CC[C@]2(NC(=O)C(=O)NC3CCCCC3)CC[C@]3(C)[C@H](CC[C@@H]4[C@@]5(C)CC=C(c6ccc(C(=O)O)cc6)C(C)(C)[C@@H]5CC[C@]43C)[C@@H]12 [Example 80, 4-((1R,3aS,5aR,5bR,7aR,11aS,11bR,13aR,13bR)-3a-(2-(cyclohexylamino)-2-oxoacetamido)-5a,5b,8,8,11a-pentamethyl-1-(prop-1-en-2-yl)-2,3,3a,4,5,5a,5b,6,7,7a,8,11,11a,11b,12,13,13a,13b-octadecahydro-1H-cyclopenta[a]chrysen-9-yl)benzoic acid] the EC50 was 110 nM.
For C=C(C)[C@@H]1CC[C@]2(NC(=O)Cn3ccc4ccccc43)CC[C@]3(C)[C@H](CC[C@@H]4[C@@]5(C)CC=C(c6ccc(C(=O)O)cc6)C(C)(C)[C@@H]5CC[C@]43C)[C@@H]12 [Example 90, 4-((1R,3aS,5aR,5bR,7aR,11aS,11bR,13aR,13bR)-3a-(2-(1H-indol-1-yl)acetamido)-5a,5b,8,8,11a-pentamethyl-1-(prop-1-en-2-yl)-2,3,3a,4,5,5a,5b,6,7,7a,8,11,11a,11b,12,13,13a,13b-octadecahydro-1H-cyclopenta[a]chrysen-9-yl)benzoic acid], the EC50 was 20 nM.
